Read-outs that look alike come from different tables or passages of the source.
What was measured:
[1] = tested on: nontumorigenic neonatal foreskin fibroblast (NFF) cell line
[2] = tested on: Trichomonas vaginalis G3 trophozoites
[3] = HTS, parasite screen at 1 µg/mL, replicate 1
[4] = HTS, parasite screen at 1 µg/mL, replicate 1, raw absorbance
[5] = HTS, parasite screen at 1 µg/mL, replicate 2
[6] = HTS, parasite screen at 1 µg/mL, replicate 2, raw absorbance
[7] = NFF_NS1 screen 5 µg/mL, single concentration
[8] = HTS single concentration, parasite screen 1 µg/mL, replicate 1
[9] = HTS single concentration, parasite screen 1 µg/mL, replicate 2
[10] = NFF_NS1 screen at 5 µg/mL, NFF cells
[11] = parasite screen at 1 µg/mL, replicate 1
[12] = parasite screen at 1 µg/mL, replicate 2

Row | Structure (SMILES) | T.vaginalis_%inb_Rep1 [2, 3] [%] | T.vaginalis_%inb_Rep2 [2, 5] [%] | NFF_Activity [1, 7] | T.vaginalis_%inb_Rep1 [2, 8] [%] | T.vaginalis_%inb_Rep2 [2, 9] [%] | other results
1 | CCCC[C@@H](C)[C@@H](OC(=O)C[C@@H](CC(=O)O)C(=O)O)[C@H](C[C@@H](C)CCCCCC[C@@H](O)C[C@H](O)[C@H](C)N)OC(=O)C[C@@H](CC(=O)O)C(=O)O [Fumonisin B2] | 14.71 | 10.52 |  |  |  | NFF_Activity ([1]; NFF_NS1 screen at 5 µg/mL): I (otherwise these were reported as inactive (I)); T.vaginalis_Absorbance_Rep1 [2, 4]: 0.992; T.vaginalis_Absorbance_Rep2 [2, 6]: 0.799
2 | CC(=O)NCCc1c[nH]c2ccccc12 [BIA-A1732] |  |  | I (otherwise these were reported as inactive (I)) | 14.43 | 33.62 | 
3 | CC=CC(C)=CC(C)C(=O)CC(O)CC1CC(=O)NC(=O)C1 (centres unmarked) [BIA-M1404] |  |  | I (otherwise these were reported as inactive (I)) | 18.76 | 13.41 | 
4 | Cc1c2ccocc-2oc1=O [BIA-K1791] |  |  |  |  |  | NFF_Activity ([1]; NFF cells, screen at 5 µg/mL): I (otherwise these were reported as inactive (I)); T.vaginalis_%inb_Rep1 ([2]; replicate 1; parasite screen at 1 µg/mL): 12.47%; T.vaginalis_%inb_Rep2 ([2]; replicate 2; parasite screen at 1 µg/mL): 13.47%
5 | Cc1cc(O)c(C=O)c2c1C(=O)Oc1c(CO)c(O)c3c(c1O2)C(O)OC3=O (centres unmarked) [BIA-S1741] |  |  |  |  |  | NFF_Activity [1, 10]: I (otherwise these were reported as inactive (I)); T.vaginalis_%inb_Rep1 [2, 11]: 17.25%; T.vaginalis_%inb_Rep2 [2, 12]: 7.43%
6 | COC(=O)c1cc(O)cc(OC)c1C(=O)c1c(O)cc(C)cc1O [BIA-S1089] |  |  |  |  |  | NFF_Activity [1, 10]: A (active (A) compounds having >25% inhibitory activity); T.vaginalis_%inb_Rep1 [2, 11]: 9.49%; T.vaginalis_%inb_Rep2 [2, 12]: 14.81%
7 | CC[C@@H](C)/C=C(C)/C=C/C(=O)c1c(O)c(-c2ccc(O)cc2)cn(O)c1=O [BIA-T1566] |  |  |  |  |  | NFF_Activity [1, 10]: I (otherwise these were reported as inactive (I)); T.vaginalis_%inb_Rep1 [2, 11]: 8.55%; T.vaginalis_%inb_Rep2 [2, 12]: 14.93%
8 | O=C(O)c1cccc2nc3ccccc3nc12 [Tubermycin B] | 8.13 | 16.27 |  |  |  | NFF_Activity ([1]; NFF fibroblast screen at 5 µg/mL, A = active, I = inactive): I (otherwise these were reported as inactive (I))
9 | CC(C)C[C@H](NC(=O)[C@@H](O)[C@H](N)Cc1ccccc1)C(=O)O [BIA-B1278] |  |  | I (otherwise these were reported as inactive (I)) | 14.49 | 15.84 | 
10 | CCCCCC[C@H]1C(=O)O[C@H](C)[C@@H](O)/C=C/C=C/C=C/C=C/C=C(\C)[C@@H](O)C[C@H](O)C[C@H](O)C[C@H](O)C[C@H](O)C[C@H](O)C[C@@H]1O [Filipin II] | 13.79 | 25.09 |  |  |  | NFF_Activity ([1]; NFF_NS1 screen at 5 µg/mL): I (otherwise these were reported as inactive (I)); T.vaginalis_Absorbance_Rep1 [2, 4]: 0.965; T.vaginalis_Absorbance_Rep2 [2, 6]: 0.967
11 | C=C1[C@@H](C)[C@H]2[C@H](Cc3ccccc3)NC(=O)[C@]23[C@H](OC(C)=O)[C@@H]2O[C@H]2[C@@](C)(O)C(=O)[C@@H](C)C/C=C\[C@H]3[C@@H]1O [Epoxycytochalasin D, 19,20-] | 12.71 | 12.22 |  |  |  | NFF_Activity ([1]; NFF_NS1 screen at 5 µg/mL): I (otherwise these were reported as inactive (I)); T.vaginalis_Absorbance_Rep1 [2, 4]: 0.945; T.vaginalis_Absorbance_Rep2 [2, 6]: 0.789
12 | CCC(=O)Nc1c2sscc-2n(C)c1=O [BIA-A1120] |  |  | A (active (A) compounds having >25% inhibitory activity) | 100.00 | 82.07 | 
13 | O=[N+]([O-])c1ncc[nH]1 [BIA-A1690] |  |  | I (otherwise these were reported as inactive (I)) | 15.19 | 9.83 | 
14 | COc1ccc(C[C@H]2NC[C@H](O)[C@H]2OC(C)=O)cc1 [BIA-A1215] |  |  | I (otherwise these were reported as inactive (I)) | 63.76 | 97.54 | 
15 | COc1c(O)c2c(=O)cc3c4c5c(cc(=O)c6c(O)c(OC)c(C[C@H](C)OC(C)=O)c(c(c1C[C@H](C)OC(C)=O)c24)c65)OCO3 [Diacetylcercosporin] | 12.65 | 14.53 |  |  |  | NFF_Activity ([1]; NFF_NS1 screen at 5 µg/mL): A (active (A) compounds having >25% inhibitory activity); T.vaginalis_Absorbance_Rep1 [2, 4]: 0.944; T.vaginalis_Absorbance_Rep2 [2, 6]: 0.821

Reference: article PMC7897990, “TriTOX: A novel Trichomonas vaginalis assay platform for high-throughput screening of compound libraries” (International Journal for Parasitology: Drugs and Drug …, 2021)
